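How tested: cells in 96-well plates exposed to compound for 48 hours at five concentrations. TGI is the concentration that stops growth completely.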
Assays:
Test in all cases: NCI anticancer screen, dose series, 48 h
U251 CNS = system: U251 CNS
RPMI-8226 leukemia = system: RPMI-8226 leukemia
A549 NSCLC = system: A549 NSCLC
HT29 colon = system: HT29 colon
UO-31 renal = system: UO-31 renal
EKVX NSCLC = system: EKVX NSCLC
HOP-62 NSCLC = system: HOP-62 NSCLC
IGROV1 ovarian = system: IGROV1 ovarian
A498 renal = system: A498 renal

Row | SMILES | TGI (U251 CNS) [µM] | TGI (RPMI-8226 leukemia) [µM] | TGI (A549 NSCLC) [µM] | TGI (HT29 colon) [µM] | TGI (UO-31 renal) [µM] | TGI (EKVX NSCLC) [µM] | TGI (HOP-62 NSCLC) [µM] | TGI (IGROV1 ovarian) [µM] | TGI (A498 renal) [µM]
1 | c1ccc(N=C2c3ccccc3CN2c2ccccc2)cc1 | > 100 | > 100 | > 100 | > 100 | > 100 | > 100 | > 100 | > 100 | –
2 | S=c1ssc2c3ssc(=S)c3n(Cc3ccccc3)c12 | > 100 | > 100 | > 100 | > 100 | 67 | > 100 | > 100 | > 100 | > 100
3 | CCCCCCCCCOC(=O)c1cnc(Cl)cn1 | 33.9 | 63.5 | 64.8 | 86.1 | 34.4 | 41.6 | 44.9 | 36 | –
4 | COc1ccc(OC)c(C2CCc3nc4nc(N)nc(N)c4cc3C2)c1 (centres undefined) | 3.28 | 19 | 31.4 | 10.8 | 15.8 | 28.1 | 5.04 | 26.7 | 27.5
5 | CCOC(=O)c1nc2cc(N3CCOCC3)c(F)cc2[nH]c1=O | > 100 | > 100 | > 100 | > 100 | > 100 | > 100 | > 100 | > 100 | > 100
6 | COc1c2c(c(OC)c3c1c(=O)c1ccccc1n3C)OCO2 | > 100 | > 100 | > 100 | > 100 | > 100 | > 100 | > 100 | > 100 | > 100
7 | Cc1[nH]c2ncn3nc(C(Cl)(Cl)Cl)nc3c2c1Cc1ccccc1 | > 100 | > 100 | > 100 | > 100 | 23.3 | > 100 | > 100 | > 100 | > 100
8 | Clc1ccc(-c2nn3c(CCCCCCCCc4nnc5sc(-c6ccc(Cl)cc6)nn45)nnc3s2)cc1 | 39.8 | 72.2 | > 64.5 | 30.6 | 29.4 | > 83 | > 83.2 | > 100 | > 85.9
9 | CN(C1=NCCO1)c1cccc2ccccc12 | > 10 | > 10 | > 10 | > 10 | > 10 | > 10 | > 10 | > 10 | > 10
10 | CCC1(C)C=Cc2c(cc(OC)c3c(=O)c4ccccc4n(C)c23)O1 (centres undefined) | > 10 | > 10 | > 10 | > 10 | 2.39 | > 10 | > 10 | > 10 | > 10
11 | CC(C)=CCC[C@]1(C)CC[C@]2(C)C3CCC(=C(C)C)[C@@H](CCCO)[C@]3(C)CC[C@@]2(C)C1 (some centres undefined) | 61.4 | > 100 | > 100 | > 100 | 34 | > 100 | > 100 | 37.9 | > 100
12 | CCOC(=O)c1c(C)n(Cc2ccccc2)c(=O)c2ccccc2c(=O)c2c(=O)ccc(=O)c1=2 | > 100 | 67.3 | > 100 | > 100 | 34.7 | > 100 | > 100 | 67.9 | > 100
13 | CCOC(=O)CN1CCNCCN(CC(=O)OCC)CCNCC1 | > 100 | > 100 | > 100 | > 100 | > 100 | > 100 | > 100 | > 100 | > 100
14 | CN1CCCN2CCN(C)CCN(CC1)CC2 | > 100 | > 100 | > 100 | > 100 | > 100 | > 100 | > 100 | > 100 | > 100
15 | COC(=O)c1ccccc1C1CN=NC12Cc1ccc3ccccc3c1C2=O (centres undefined) | > 100 | > 100 | > 100 | – | > 100 | > 100 | – | > 100 | > 100
16 | CCOC(=O)C1C(=O)CC(O)(OCC)C(C(=O)OCC)C1c1ccc(OC)cc1 (centres undefined) | > 100 | – | > 100 | > 100 | > 100 | > 100 | > 100 | > 100 | > 100
17 | COc1c(CC=C(C)C)c(O)c(C(CC(C)C)c2c(O)c(C(C)=O)c(O)c3c2OC(C(C)(C)O)C3)c(O)c1C(C)=O (centres undefined) | – | – | > 12.5 | > 12.5 | > 12.5 | 11.6 | – | > 12.5 | > 12.5
18 | S=c1[nH]nc(COc2ccc3c(c2)CCCC3)n1/N=C/c1ccc(Cl)cc1 | 34.6 | 36.1 | 35.8 | – | 31.4 | 34.6 | 32.3 | 30.6 | –
19 | COC(CN(C)C(=O)C(C)NC(=O)c1ccccc1)OC (centres undefined) | > 100 | > 100 | > 100 | > 100 | – | > 100 | – | > 100 | –
20 | c1ccc2c(c1)ccc1nc(-c3ccc4c(c3)OCO4)c3c(c12)CCCC3 | > 100 | > 100 | > 100 | > 100 | 90.8 | > 100 | > 100 | – | 72.9
21 | Cc1c(N2C(=O)/C(=C/C=C/c3ccccc3)N=C2c2ccccc2)c(=O)n(-c2ccccc2)n1C | 33 | 47.6 | 69.8 | 54 | 32.6 | 36.5 | 85.3 | 35.5 | –
22 | CC1C(c2ccc(F)cc2)c2cc3c(cc2OC1N1CCCC1)OCO3 (centres undefined) | – | – | > 100 | > 100 | > 100 | > 100 | > 100 | > 100 | –
23 | Cc1ccc(-c2c(C#N)c(-c3ccc(Cl)cc3)c(C#N)c(=O)n2NS(=O)(=O)c2ccccc2)cc1 | > 100 | 51.6 | > 100 | > 100 | – | > 100 | > 100 | > 100 | > 100
24 | O=C(Cn1c(=O)ccn(C2OC(CO)C(O)C2F)c1=O)c1ccc(F)cc1 (centres undefined) | > 100 | > 100 | > 100 | > 100 | > 100 | > 100 | > 100 | > 100 | –
25 | O=C(OCCN=C1c2ccccc2CCc2ccccc21)c1cc([N+](=O)[O-])cc([N+](=O)[O-])c1 | > 100 | 8.14 | > 31.6 | > 31.6 | > 100 | > 31.6 | > 31.6 | > 31.6 | –

Source: PubChem BioAssay (NCI)
